Experimental data as given in US20120157452A1, “1H-PYRAZOLO[3,4-B] PYRIDINE COMPOUNDS FOR INHIBITING RAF KINASE” (GENENTECH, INC., priority 2009, published 2012).

Target: T1, V600E full-length B-Raf (Homo sapiens, UniProt P15056, V600E)
T1 construct: made in house; host or cells: Sf9 insect cells (baculovirus)
Experiment: B-Raf IC50 assay: incorporation of radio labeled phosphate from [γ-33P]ATP into FSBA-modified wild-type MEK
Assay type: biochemical
Source text: Determining the activity of Raf in the sample is possible by a number of direct and indirect detection methods (US 2004/0082014). Activity of human recombinant B-Raf protein may be assessed in vitro by assay of the incorporation of radio labeled phosphate to recombinant MAP kinase (MEK), a known physiologic substrate of B-Raf, according to US 2004/0127496 and WO 03/022840. The activity/inhibition of V600E full-length B-Raf was estimated by measuring the incorporation of radio labeled phosphate from [γ-^33]ATP into FSBA-modified wild-type MEK (see Biological Example 1).
Activity of human recombinant B-Raf protein may be assessed in vitro by assay of the incorporation of radio labeled phosphate to recombinant MAP kinase (MEK), a known physiologic substrate of B-Raf, according to US 2004/0127496 and WO 03/022840. Catalytically active human recombinant B-Raf protein is obtained by purification from sf9 insect cells infected with a human B-Raf recombinant baculovirus expression vector.
The activity/inhibition of V600E full-length B-Raf was estimated by measuring the incorporation of radio labeled phosphate from [γ-^33]ATP into FSBA-modified wild-type MEK. The 30-μL, assay mixtures contained 25 mM Na Pipes, pH 7.2, 100 mM KCl, 10 mM MgCl2, 5 mM β-glycerophosphate, 100 μM Na Vanadate, 4 μM ATP, 500 nCi [γ-^33P]ATP, 1 μM FSBA-MEK and 20 nM V600E full-length B-Raf. Incubations were carried out at 22° C. in a Costar 3365 plate (Corning). Prior to the assay, the B-Raf and FSBA-MEK were preincubated together in assay buffer at 1.5× (20 μL of 30 nM and 1.5 μM, respectively) for 15 minutes, and the assay was initiated by the addition of 10 μL of […]. Following the 60-minute incubation, the assay mixtures were quenched by the addition of 100 μL of 25% TCA, the plate was mixed on a rotary shaker for 1 minute, and the product was captured on a Perkin-Elmer GF/B filter plate using a Tomtec Mach III Harvester. After sealing the bottom of the plate, 35 μL of Bio-Safe II (Research Products International) scintillation cocktail were added to each well and the plate was top-sealed and counted in a Topcount NXT (Packard).

[1] = 4 μM ATP, 60-minute incubation, representative data of multiple tests

T1 sequence (P15056 whole entry V600E): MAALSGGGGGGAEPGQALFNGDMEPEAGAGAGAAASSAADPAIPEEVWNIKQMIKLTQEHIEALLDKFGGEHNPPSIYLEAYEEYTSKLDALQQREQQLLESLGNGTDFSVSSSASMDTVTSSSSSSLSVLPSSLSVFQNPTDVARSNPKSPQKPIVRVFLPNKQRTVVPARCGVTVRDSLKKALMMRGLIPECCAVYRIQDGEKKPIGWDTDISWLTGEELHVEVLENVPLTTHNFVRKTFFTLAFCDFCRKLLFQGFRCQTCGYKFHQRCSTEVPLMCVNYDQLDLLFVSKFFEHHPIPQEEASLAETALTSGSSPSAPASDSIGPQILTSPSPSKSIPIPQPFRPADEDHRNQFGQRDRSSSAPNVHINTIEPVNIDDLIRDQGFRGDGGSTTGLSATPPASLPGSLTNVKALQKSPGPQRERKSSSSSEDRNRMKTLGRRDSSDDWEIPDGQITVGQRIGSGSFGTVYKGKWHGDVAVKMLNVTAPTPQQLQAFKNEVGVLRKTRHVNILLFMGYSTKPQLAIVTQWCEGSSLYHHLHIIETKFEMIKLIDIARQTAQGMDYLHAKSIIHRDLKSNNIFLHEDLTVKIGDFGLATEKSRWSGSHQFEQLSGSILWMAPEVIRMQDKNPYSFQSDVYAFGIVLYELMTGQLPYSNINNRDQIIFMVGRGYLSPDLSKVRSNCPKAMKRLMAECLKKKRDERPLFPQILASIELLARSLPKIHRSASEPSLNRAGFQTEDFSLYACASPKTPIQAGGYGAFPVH

Compound: COc1n[nH]c2ncc(NC(=O)c3cccc(OCc4ccccc4)c3)cc12 [Example 1, 3-(benzyloxy)-N-(3-methoxy-1H-pyrazolo[3,4-b]pyridin-5-yl)benzamide]
- IC50 [1]: 429 nM
- IC50 (bound stated): < 500 nM

Compound: COc1n[nH]c2ncc(NC(=O)c3cc(OCc4ccccc4)ccc3F)cc12 [Example 2, 5-(benzyloxy)-2-fluoro-N-(3-methoxy-1H-pyrazolo[3,4-b]pyridin-5-yl)benzamide]
- IC50 [1]: 55.8 nM
- IC50 (bound stated): < 100 nM

Compound: COc1n[nH]c2ncc(NC(=O)c3c(Cl)ccc(OCc4ccccc4F)c3F)cc12 [Example 3, 6-chloro-2-fluoro-3-(2-fluorobenzyloxy)-N-(3-methoxy-1H-pyrazolo[3,4-b]pyridin-5-yl)benzamide]
- IC50 [1]: 0.44 nM
- IC50 (bound stated): < 100 nM

Compound: COc1n[nH]c2ncc(NC(=O)c3c(Cl)ccc(OCc4ccccc4)c3F)cc12 [Example 4, 3-(benzyloxy)-6-chloro-2-fluoro-N-(3-methoxy-1H-pyrazolo[3,4-b]pyridin-5-yl)benzamide]
- IC50 [1]: 0.62 nM
- IC50 (bound stated): < 100 nM

Compound: COc1n[nH]c2ncc(NC(=O)c3c(C)ccc(OCc4ccccc4)c3F)cc12 [Example 5, 3-(benzyloxy)-2-fluoro-N-(3-methoxy-1H-pyrazolo[3,4-b]pyridin-5-yl)-6-methylbenzamide]
- IC50 [1]: 1.06 nM
- IC50 (bound stated): < 100 nM

Compound: CCc1n[nH]c2ncc(NC(=O)c3c(Cl)ccc(OCc4ccccc4)c3F)cc12 [Example 6, 3-(benzyloxy)-6-chloro-N-(3-ethyl-1H-pyrazolo[3,4-b]pyridin-5-yl)-2-fluorobenzamide]
- IC50 [1]: 2.52 nM
- IC50 (bound stated): < 100 nM

Compound: CN(C)c1n[nH]c2ncc(NC(=O)c3c(Cl)ccc(OCc4ccccc4)c3F)cc12 [Example 7, 3-(benzyloxy)-6-chloro-N-(3-(dimethylamino)-1H-pyrazolo[3,4-b]pyridin-5-yl)-2-fluorobenzamide]
- IC50 [1]: 4.76 nM
- IC50 (bound stated): < 100 nM

Compound: O=C(Nc1cnc2[nH]nc(C(F)(F)F)c2c1)c1c(Cl)ccc(OCc2ccccc2)c1F [Example 8, 3-(benzyloxy)-6-chloro-2-fluoro-N-(3-(trifluoromethyl)-1H-pyrazolo[3,4-b]pyridin-5-yl)benzamide]
- IC50 [1]: 5.83 nM
- IC50 (bound stated): < 100 nM

Compound: O=C(Nc1cnc2[nH]nc(-c3ccco3)c2c1)c1c(Cl)ccc(OCc2ccccc2)c1F [Example 9, 3-(benzyloxy)-6-chloro-2-fluoro-N-(3-(furan-2-yl)-1H-pyrazolo[3,4-b]pyridin-5-yl)benzamide]
- IC50 [1]: 1.17 nM
- IC50 (bound stated): < 100 nM

Compound: CC(C)c1n[nH]c2ncc(NC(=O)c3c(Cl)ccc(OCc4ccccc4)c3F)cc12 [Example 10, 3-(benzyloxy)-6-chloro-2-fluoro-N-(3-isopropyl-1H-pyrazolo[3,4-b]pyridin-5-yl)benzamide]
- IC50 [1]: 2.29 nM
- IC50 (bound stated): < 100 nM

Compound: CNc1n[nH]c2ncc(NC(=O)c3c(Cl)ccc(OCc4ccccc4)c3F)cc12 [Example 11, 3-benzyloxy-6-chloro-2-fluoro-N-(3-(methylamino)-1H-pyrazolo[3,4-b]pyridin-5-yl)benzamide]
- IC50 [1]: 7.03 nM
- IC50 (bound stated): < 100 nM

Compound: CSc1n[nH]c2ncc(NC(=O)c3c(Cl)ccc(OCc4ccccc4)c3F)cc12 [Example 12, 3-(benzyloxy)-6-chloro-2-fluoro-N-(3-(methylthio)-1H-pyrazolo[3,4-b]pyridin-5-yl)benzamide]
- IC50 [1]: 1.85 nM
- IC50 (bound stated): < 100 nM

Compound: COCCOc1n[nH]c2ncc(NC(=O)c3c(Cl)ccc(OCc4ccccc4)c3F)cc12 [Example 13, 3-(benzyloxy)-6-chloro-2-fluoro-N-(3-(2-methoxyethoxy)-1H-pyrazolo[3,4-b]pyridin-5-yl)benzamide]
- IC50 [1]: 1.91 nM
- IC50 (bound stated): < 100 nM

Compound: CCOc1n[nH]c2ncc(NC(=O)c3c(Cl)ccc(OCc4ccccc4)c3F)cc12 [Example 14, 3-(benzyloxy)-6-chloro-N-(3-ethoxy-1H-pyrazolo[3,4-b]pyridin-5-yl)-2-fluorobenzamide]
- IC50 [1]: 0.93 nM
- IC50 (bound stated): < 100 nM

Compound: O=C(Nc1cnc2[nH]nc(OCCO)c2c1)c1c(Cl)ccc(OCc2ccccc2)c1F [Example 15, 3-(benzyloxy)-6-chloro-2-fluoro-N-(3-(2-hydroxyethoxy)-1H-pyrazolo[3,4-b]pyridine-5-yl)benzamide]
- IC50 [1]: 2.63 nM
- IC50 (bound stated): < 100 nM

Compound: CC(C)Oc1n[nH]c2ncc(NC(=O)c3c(Cl)ccc(OCc4ccccc4)c3F)cc12 [Example 16, 3-(benzyloxy)-6-chloro-2-fluoro-N-(3-isopropoxy-1H-pyrazolo[3,4-b]pyridin-5-yl)benzamide]
- IC50 [1]: 1.71 nM
- IC50 (bound stated): < 100 nM

Compound: CN(C)CCOc1n[nH]c2ncc(NC(=O)c3c(Cl)ccc(OCc4ccccc4)c3F)cc12 [Example 17, 3-(benzyloxy)-6-chloro-N-(3-(2-(dimethylamino)ethoxy)-1H-pyrazolo[3,4-b]pyridin-5-yl)-2-fluorobenzamide]
- IC50 [1]: 11.1 nM
- IC50 (bound stated): < 100 nM

Compound: O=C(Nc1cnc2[nH]nc(OCCF)c2c1)c1c(Cl)ccc(OCc2ccccc2)c1F [Example 18, 3-(benzyloxy)-6-chloro-2-fluoro-N-(3-(2-fluoroethoxy)-1H-pyrazolo[3,4-b]pyridine-5-yl)benzamide]
- IC50 [1]: 0.82 nM
- IC50 (bound stated): < 100 nM

Compound: COc1n[nH]c2ncc(NC(=O)c3c(Cl)ccc(OCc4ccc(C(F)(F)F)cc4)c3F)cc12 [Example 19, 6-chloro-2-fluoro-N-(3-methoxy-1H-pyrazolo[3,4-b]pyridin-5-yl)-3-(4-(trifluoromethyl)benzyloxy)benzamide]
- IC50 [1]: 2.04 nM
- IC50 (bound stated): < 100 nM

Compound: CC1(c2n[nH]c3ncc(NC(=O)c4c(Cl)ccc(OCc5ccccc5)c4F)cc23)CC1 [Example 20, 3-(benzyloxy)-6-chloro-2-fluoro-N-(3-(1-methylcyclopropyl)-1H-pyrazolo[3,4-b]pyridin-5-yl)benzamide]
- IC50 [1]: 3.48 nM
- IC50 (bound stated): < 100 nM

Compound: COc1n[nH]c2ncc(NC(=O)c3cccc(OCc4ccccc4)c3Cl)cc12 [Example 21, 3-(benzyloxy)-2-chloro-N-(3-methoxy-1H-pyrazolo[3,4-b]pyridin-5-yl)benzamide]
- IC50 [1]: 72.4 nM
- IC50 (bound stated): < 100 nM

Compound: COc1n[nH]c2ncc(NC(=O)c3cccc(OCc4ccccc4)c3C)cc12 [Example 22, 3-(benzyloxy)-N-(3-methoxy-1H-pyrazolo[3,4-b]yridine-5-yl)-2-methylbenzamide]
- IC50 [1]: 585 nM

Compound: COc1n[nH]c2ncc(NC(=O)c3cc(OCc4ccccc4)ccc3Cl)cc12 [Example 23, 5-(benzyloxy)-2-chloro-N-(3-methoxy-1H-pyrazolo[3,4-b]pyridin-5-yl)benzamide]
- IC50 [1]: 4 nM
- IC50 (bound stated): < 100 nM

Compound: COc1n[nH]c2ncc(NC(=O)c3cc(OCc4ccccn4)ccc3Cl)cc12 [Example 24, 2-chloro-N-(3-methoxy-1H-pyrazolo[3,4-b]pyridin-5-yl)-5-(pyridin-2-ylmethoxy)benzamide]
- IC50 [1]: 64.9 nM
- IC50 (bound stated): < 100 nM

Compound: COc1n[nH]c2ncc(NC(=O)c3c(Cl)ccc(OCc4ccccc4)c3Cl)cc12 [Example 25, 3-(benzyloxy)-2,6-dichloro-N-(3-methoxy-1H-pyrazolo[3,4-b]pyridin-5-yl)benzamide]
- IC50 [1]: 12.3 nM
- IC50 (bound stated): < 100 nM

Compound: COc1n[nH]c2ncc(NC(=O)c3c(F)ccc(OCc4ccccc4)c3F)cc12 [Example 26, 3-(benzyloxy)-2,6-difluoro-N-(3-methoxy-1H-pyrazolo[3,4-b]pyridin-5-yl)benzamide]
- IC50 [1]: 2.41 nM
- IC50 (bound stated): < 100 nM

Compound: COc1n[nH]c2ncc(NC(=O)c3cc(OCc4ccccc4)ccc3C)cc12 [Example 27, 5-(benzyloxy)-N-(3-methoxy-1H-pyrazolo[3,4-b]pyridin-5-yl)-2-methylbenzamide]
- IC50 [1]: 2.95 nM
- IC50 (bound stated): < 100 nM

Compound: COc1n[nH]c2ncc(NC(=O)c3c(Cl)ccc(OCc4cccc(F)c4)c3F)cc12 [Example 28, 6-chloro-2-fluoro-3-(3-fluorobenzyloxy)-N-(3-methoxy-1H-pyrazolo[3,4-b]pyridin-5-yl)benzamide]
- IC50 [1]: 0.84 nM
- IC50 (bound stated): < 100 nM

Compound: COc1n[nH]c2ncc(NC(=O)c3c(Cl)ccc(OCc4ccc(F)cc4)c3F)cc12 [Example 29, 6-chloro-2-fluoro-3-(4-fluorobenzyloxy)-N-(3-methoxy-1H-pyrazolo[3,4-b]pyridin-5-yl)benzamide]
- IC50 [1]: 0.65 nM
- IC50 (bound stated): < 100 nM

Compound: COc1n[nH]c2ncc(NC(=O)c3c(Cl)ccc(OCc4ccc(C)cc4)c3F)cc12 [Example 31, 6-chloro-2-fluoro-N-(3-methoxy-1H-pyrazolo[3,4-b]pyridin-5-yl)-3-(4-methyl-benzyloxy)benzamide]
- IC50 [1]: 0.56 nM
- IC50 (bound stated): < 100 nM
